From PMC3711284, “Anti-antimicrobial Peptides” (The Journal of Biological Chemistry, 2013)
Where two headings read alike, the source gives them in different places. Where no end group is shown, it is not given here.

Experiments:
[1] = tested on: Bacillus subtilis ATCC 6633; format: cell-based
Experimental: (§1) MICs were determined by broth microdilution on Pseudomonas aeruginosa ATCC 27853, Escherichia coli K12, Staphylococcus aureus ATCC 25723, Micrococcus luteus NCIMB 13267, and Bacillus subtilis ATCC 6633 according to the Clinical and Laboratory Standards Institute. Typically, 100 μl of 0.5–1 × 10^6 cfu/ml of each bacterium in Mueller-Hinton medium broth (Oxoid) was incubated in 96-well microtiter plates with 100 μl of serial 2-fold dilutions of the peptides (from 100 to 0 μM) at 37 °C on a three-dimensional orbital shaker. The absorbance was measured after peptide addition at 600 nm using a Victor 2 plate reader (PerkinElmer Life Sciences). MICs were defined as the lowest peptide concentration after 24 h at 37 °C. All tests were done in triplicate.

[2] = tested on: Escherichia coli K12; format: cell-based
Experimental: as §1

[3] = tested on: Micrococcus luteus NCIMB 13267; format: cell-based
Experimental: as §1

[4] = tested on: Pseudomonas aeruginosa ATCC 27853; format: cell-based
Experimental: as §1

[5] = tested on: S. aureus (ATCC6538); format: cell-based, Staphylococcus aureus
[6] = tested on: human erythrocytes; experiment: Hemolysis assay; format: cell-based
Experimental: Hemolysis was determined by incubating 10% (v/v) suspension of human erythrocytes with peptides. Erythrocytes were rinsed four times in 10 mM PBS, pH 7.2, by repeated centrifugation and resuspension (3 min at 3000 × g). Erythrocytes were incubated at room temperature for 1 h in either deionized water (fully hemolysed control), PBS, or with peptide in PBS. After centrifugation at 10,000 × g for 5 min, the supernatant was separated from the pellet and the absorbance measured at 550 nm. Absorbance of the suspension treated with deionized water defined complete hemolysis. The values below correspond to the percentage of hemolysis at tested concentrations. All tests were done in triplicate.

[7] = tested on: cBt; experiment: Isothermal titration calorimetry of anti-cBt into cBt; format: binding; conditions: ITC, 20 °C
Experimental: Measurements were obtained using a Microcal VP-isothermal titration calorimeter and a calorimetric cell (initial volume 1.46 ml) with a 260-s equilibration time and a 120-s initial delay after each addition. The titrations were performed at 20 °C with stirring until no further enthalpy changes were observed. Binding isotherms were recorded for cBt (30 μM) following the injection of anti-cBt (2 μl aliquots, 1.4 mM) into the cell. The observed heats were corrected for dilution effects by titrating peptide solutions, as appropriate, into the buffer and using the heat of last injections due to negligible differences between the first and last injections. All the data were corrected for the volume of the added titrant and analyzed by proprietary software (Microcal Origin 7) using a one-site binding model to allow for the determination of association constants (Ka), changes in enthalpy (ΔH) and enthropy (ΔS). Each experiment was performed in triplicate.

[8] = tested on: S. aureus (ATCC 25723); format: cell-based
Experimental: S. aureus (ATCC 25723) culture (1 ml) was centrifuged to give a cell pellet, which was washed twice with 10 mM phosphate buffer, pH 7.4, before being reconstituted in phosphate buffer to give A600 nm = 0.008. 1 ml of the solution was dispensed in a 2-well glass chamber (LabTek) with diluted (1/500) propidium iodide (1 mg/ml, from Invitrogen). The chambers with surface-settled bacteria (60 min) were mounted on a confocal microscope (Olympus) equipped with an incubation chamber at 37 °C. Propidium iodide fluorescence emission was monitored at 625 nm for 60 min (three frames/min) using an appropriate filter after the addition of peptide (1 ml). Recorded images (XYZ) were analyzed using Fiji software to plot the number of fluorescent (stain-dead) cells as a function of time.

[9] = tested on: E. coli; experiment: Gram stain assay after overnight incubation with peptide; format: cell-based, Escherichia coli; conditions: incubated with peptide for 16 h, optical microscopy; anti-cBt:cBt 10:1 (100:10 μM)
Experimental: (§2) 20 μl of a bacterium culture was dispensed onto a glass slide and spread well. The slide was swiftly passed through a Bunsen flame to dry and fix cells before staining. The fixed bacteria were first covered in crystal violet (0.25%) for 30 s followed by washing with water (distilled, filtered 0.22 μm) until all of the excess stain was washed off, and then with iodine (1.0%) for 2 min before washing with a minimum amount of acetone needed to rinse off the iodine color. The cells were counterstained with safranin (0.5%) for 30 s, washed with water, and dried by a Bunsen flame. The obtained slides were viewed under a Leica DMLB fluorescent microscope. The images were obtained at ×100 magnification under oil and analyzed by ImageJ.

[10] = tested on: P. aeruginosa; experiment: as above; format: cell-based, Pseudomonas aeruginosa; conditions: incubated with peptide for 16 h, optical microscopy; anti-cBt:cBt 10:1 (100:10 μM)
Experimental: as §2

[11] = broth microdilution, Mueller-Hinton broth, 24 h, 37 °C, A600, triplicate
[12] = human erythrocytes 10% (v/v) in PBS pH 7.2, 1 h, room temperature, A550, 50% cell death compared with untreated cells, triplicate

Row | Substance | Minimum inhibitory concentration (MIC) B. subtilis (ATCC6633) [1, 11] [µM] | Minimum inhibitory concentration (MIC) E. coli (K12) [2, 11] [µM] | Minimum inhibitory concentration (MIC) M. luteus (NCIMB 13267) [3, 11] [µM] | Minimum inhibitory concentration (MIC) P. aeruginosa (ATCC27853) [4, 11] [µM] | Minimum inhibitory concentration (MIC) S. aureus (ATCC6538) [5, 11] [µM] | HE (LC50) [6, 12] | association (binding) constant (Ka) ([7]; anti-cBt (1.4 mM) injected into cBt (30 μM), one-site binding model, triplicate) | ΔG of binding ([7]; anti-cBt into cBt (30 μM)) [kcal/mol] | binding enthalpy (ΔH) ([7]; anti-cBt into cBt (30 μM), endothermic) [kcal/mol] | effect on killing of S. aureus at concentrations >100 μM ([8]; stain-dead S. aureus, propidium iodide, 37 °C) | killing rate at higher concentrations (>250 μM) ([8]; stain-dead S. aureus, cBt at MIC after 1 h = 100%) [%] | effect on E. coli cell growth, Gram stain [9] | effect on P. aeruginosa cell growth, Gram stain [10] | Minimum inhibitory concentration (MIC) B. subtilis (ATCC6633) ([1]; ATCC 6633, 24 h) [µM] | Minimum inhibitory concentration (MIC) E. coli (K12) ([2]; K12, 24 h) [µM] | Minimum inhibitory concentration (MIC) M. luteus (NCIMB 13267) ([3]; NCIMB 13267, 24 h) [µM] | Minimum inhibitory concentration (MIC) P. aeruginosa (ATCC27853) ([4]; ATCC 27853, 24 h) [µM] | Minimum inhibitory concentration (MIC) S. aureus (ATCC6538) ([5]; ATCC6538, 24 h) [µM] | HE (LC50) ([6]; pH 7.2) | killing rate in the first 30 min ([8]; ATCC 25723, 1 h, 100 μM, pH 7.4) [%]
1 | EAQNLEKEIAALEQAIQGLEKEIPALAQQIQALEL-NH2 [Anti-cBt] | >200 | >200 | >200 | >200 | >200 | ≫250 μM | 2.8 ± 0.2 × 10^6 M^−1 | -7.8 | 9.7 | No effects | 10 | No obvious effects | No obvious effects | – | – | – | – | – | – | –
2 | GEFAQFEQEAQSLEQELSQLEQQLESL-NH2 [Anti-b27] | – | – | – | – | – | – | – | – | – | – | – | – | – | >200 | >200 | >200 | >200 | >200 | ≫250 μM | –
3 | GRFKRFRKKFKKLFKKLSPVIPLLHLG-NH2 [b27, bovine myeloid antimicrobial peptide-27, reference compound] | – | – | – | – | – | – | – | – | – | – | – | – | – | 0.78 ± 0.01 | 3.13 ± 0.43 | 0.74 ± 0.33 | 4.51 ± 1.56 | >100 | ≫250 μM | –
4 | KWKVFKKIEKMGRNIRNGIVKAGPAIAVLGEAKAL-NH2 (C-terminus assumed) [cB, cecropin B, reference compound] | – | – | – | – | – | ≫250 μM | – | – | – | – | – | – | – | 50.7 ± 0.10 | 0.62 ± 0.01 | 0.46 ± 0.20 | 1.56 ± 0.01 | >100 | – | ~60
